What was measured:
9/13-DES = assay: Determination of the pH optimum of 9/13-DES (endpoint determination by normal-phase and reversed-phase HPLC); assay type: biochemical, Knoblauch; details: substrate of recombinant 9/13-DES; pH 5,5 bis 8,6; no pH optimum could be determined
Method: Das pH-Optimum wurde mittels einer Endpunktbestimmung mit Hilfe der Normal-Phasen-HPLC und der Umkehr-Phasen-HPLC ermittelt. Es wurden sowohl 9-HPOD als auch 13-HPOD als Substrate der DES verwendet. Für die Bestimmung des pH-Optimums wurde die Umsetzung bei pH-Werten von 4,5 bis 8,5 in Schritten von 0,5 pH-Einheiten durchgeführt. Für pH 7 wurden zweimal drei Messungen durchgeführt, da für diesen pH-Wert sowohl ein 50 mM Natrium-Phosphatpuffer als auch ein 50 mM Tris/HCl-Puffer verwendet wurde. Für die Umsetzungen wurden zwischen 25 und 80 nmol der Hydroperoxide eingesetzt. Von dem einzelnen Hydroperoxid wurde dabei immer die gleiche Menge für jede Umsetzung eingesetzt. Parallel zu den Proben für den pH-Optimumstest wurden drei Ansätze mit Zelllysat des leeren Vektors in E. coli mit 13-HPOD inkubiert. Die Leervektorkontrolle zeigte keine Divinylether-Bildung, es konnte nur das Hydroperoxid nachgewiesen werden.

[1] = system: 9/13-Divinylethersynthase aus Knoblauch; assay: Photometric determination of the substrate specificity of 9/13-DES; assay type: biochemical; details: purified 9/13-DES; 100 µM hydroperoxide; room temperature; decrease of extinction at 234 or 236 nm over one minute
Method: Für die Bestimmung der Substratspezifität wurde die 9/13-Divinylethersynthase aus Knoblauch aus einer Expressionskultur aufgereinigt. Dazu wurde zunächst eine 400 ml Expressionskultur unter den schon vorher beschriebenen Bedingungen angeimpft und angezogen. Die Zellen wurden nach zweitägiger Inkubation durch 15-minütige Zentrifugation mit 4000 g bei 4°C sedimentiert. Das Sediment wurde in 20 ml 50 mM Na-Phosphat, pH 8, resuspendiert und mit Ultraschall (Sonopuls GM 70, Bandelin, Berlin) für 5-Mal eine Minute bei 50 % Leistung und 50 % Impuls aufgeschlossen. Die Zelltrümmer wurden 15 min bei 4000 x g sedimentiert und aus dem Überstand wurden durch eine weitere Zentrifugation (1 h bei 100000 x g) die Zellmembranen sedimentiert. Das Membransediment wurde für 1 h in 50 mM Na-Phosphat, pH 8, mit 1M NaCl und 0,1 % (v/v) TritonX-100 inkubiert, um die Membranproteine zu solubilisieren. Anschließend wurde erneut 1 h bei 100000 x g zentrifugiert. Der Überstand wurde mit Talon Metal Affinity Resin (Clontech, Palo Alto, USA) (200 µl Bettvolumen) über Nacht bei 4 °C geschüttelt. Danach wurde das Material auf eine Leersäule (T.J. Baker, Phillipsburg, N.J., USA) gegeben. Die Elution erfolgte mit 3 ml 50 mM Tris/HCl pH 6,3, 10 % Glycerin, 0,1 % Tween 20, 0,5 M NaCl und 0,1 M EDTA. Durch eine PD-10 Säule (Amersham pharmacia biotech, UK) wurde das Protein in 50 mM Na-Phosphat-Puffer pH 8 umgepuffert.
Das so aufgereinigte Protein wurde für die Tests im Photometer eingesetzt. Die Messungen erfolgten bei Raumtemperatur und es wurde immer bei der Wellenlänge des eingesetzten Hydroperoxids (234 bzw. 236 nm) bei einer Konzentration 100 µM für eine Minute die Abnahme der Extinktion aufgezeichnet. Die Messungen erfolgten in einer 100 µl Quarzküvette. Die Reaktion wurde durch die Zugaben von 1 µl der Proteinlösung gestartet.

Compound | Umsetzung über den pH-Bereich (9/13-DES) | Substratspezifität (Umsetzung durch 9/13-DES) [1]
CCCCC/C=C\C=C\[C@H](CCCCCCCC(=O)O)OO [9-HPOD, (9S, 10E, 12Z)-9-Hydroperoxy-10,12-Octadecadiensäure] | gleich gut umgesetzt | in etwas geringerem Maße
CC/C=C\C/C=C\C=C\[C@H](CCCCCCCC(=O)O)OO [9-HPOT, (9S, 10E, 12Z, 15Z)-9-Hydroperoxy-10,12,15-Octadecatriensäure] | – | wesentlich weniger stark umgesetzt
CCCCC[C@@H](/C=C/C=C\CCCCCCCC(=O)O)OO [13-HPOD, (13S, 9Z, 11E)-13-Hydroperoxy-9,11-Octadecadiensäure] | – | bevorzugt
CC/C=C\C[C@@H](/C=C/C=C\CCCCCCCC(=O)O)OO [13-HPOT, (9Z, 11E, 13S, 15Z)-13-Hydroperoxy-9,11,15-Octadecatriensäure] | – | wesentlich weniger stark umgesetzt

Source: patent EP1621631A1, “Method for the production of C6 and/or C9 aldehydes and alcohols in plants by 9/13 divinyl ether synthase” (Georg-August-Universität Göttingen, priority 2004, dated 2006)
